Measurements from patent publication US20070248630A1, “PHARMACEUTICAL FORMULATIONS FOR IONTOPHORETIC METHOTREXATE DELIVERY” (priority 2006, published 2007).

Experiments:
[1] = cited from earlier work
[2] = In vitro iontophoretic delivery of MTX through hairless (nude) rat skin, Franz diffusion cells; format: in vitro ADME
Description: The delivery of MTX under 30 mins of iontophoresis (0.4 mA/cm^2) was studied at buffer strengths 0.05-0.5 M and drug concentrations 10-20 mg/ml. The effect of current density and time of application on the delivery of MTX is studied by optimizing the full-factorial design. The current density (X1) and time of application (X2) are the independent factors chosen for the factorial design with 4 and 5 levels, respectively in the range of 0.05-0.5 mA (X1) and 10-120 mins (X2).
In vitro iontophoretic experiments (n≧3) were performed using freshly excised hairless rat skin mounted on vertical Franz diffusion cells with stratum corneum facing towards the donor chamber. The donor compartment contained 15 mg/ml of MTX in phosphate buffer of pH 7.4 (0.25 M) and the receptor compartment contained phosphate buffer of pH 7.4 (0.25 M) with 75 mM NaCl.
A silver-silver chloride electrode (cathode) was placed in the donor chamber and silver wire (anode) was placed in the receptor compartment. Samples were taken at periodic intervals and were analyzed by HPLC, using YMC RP 18 column. Mobile Phase was composed of monobasic sodium phosphate (10%) and Tris HCl buffer (90%). Flow rate was 1.5 ml/min and detection wavelength was 303 nm.

delivery at 15 versus 20 mg/ml ([2]; 0.25 M buffer strength, 30 mins iontophoresis 0.4 mA/cm^2): not statistically different | amount of drug delivered, effect of MTX concentration 10 to 15 mg/ml ([2]; 0.25 M buffer strength, 30 mins iontophoresis 0.4 mA/cm^2, FIG. 2): increased | delivery, increase in time of application from 10-120 mins ([2]; at 0.05 mA): did not show any enhanced delivery | maximal flux ([2]; buffer strength 0.25 M, drug concentration 15 mg/ml, across hairless rat skin): about 0.6 μg/cm^2-hr | cumulative amount of MTX delivered, effect of increase in current density and time of application ([2]; factorial design, 0.05-0.5 mA, 10-120 mins, 15 mg/ml MTX, phosphate buffer pH 7.4 0.25 M, FIG. 3, 4): also increased
Compound: CN(Cc1cnc2nc(N)nc(N)c2n1)c1ccc(C(=O)N[C@@H](CCC(=O)O)C(=O)O)cc1 [MTX, Methotrexate]
charge at physiological pH [1]: negatively charged | cumulative amount delivered, increase in current density from 0.05 to 0.5 mA ([2]; 10 min iontophoresis): did not show a statistically significant increase | cumulative amount of MTX delivered across hairless rat skin, effect of buffer ionic strength ([2]; 30 mins iontophoresis 0.4 mA/cm^2, buffer strengths 0.05-0.5 M, FIG. 1): increased with decrease in ionic strength of the buffer | cumulative amount of drug delivered versus model prediction ([2]; current density 0.4 mA/cm^2, ITP for 30 mins): in between the lower and upper 95% confidence level
